# Starred links: 1 amine or outer side, 2 acyl side, 3 side chain; linkers in the order of their positions; H or OH if unused. Non-standard residues stand in square brackets, D forms with d. No end group written: not given here. X1 = O=C([C@H](Cc1ccc(O)cc1)N(C[C@H](O)[C@@H](O)[C@H](O)[C@H](O)CO)[*:1])[*:2]; Hyp = O=C(O)[C@@H]1C[C@@H](O)CN1
# Key:
# BRIN-BD11 cells [1] = experiment: GIP-stimulated insulin release from BRIN-BD11 cells (antagonism); assay type: cell-based; conditions: 5.6 mM glucose, native GIP 10^-7 M
# Description: Tissue culture. […] Cells were maintained in sterile tissue culture flasks (Corning Glass Works, Sunderland, UK) at 37° C. in an atmosphere of 5% CO2 and 95% air using an LEEC incubator (Laboratory Technical Engineering, Nottingham, UK). Acute studies of insulin release. Insulin release from BRIN-BD11 cells was determined using cell monolayers ([…]. et al., 1996, Diabetes 45:1132-1140). Cells were harvested with the aid of trypsin/EDTA (Gibco), seeded into 24-multiwell plates (Nunc, Roskilde, Denmark) at a density of 1.0×10^5 cells per well, and allowed to attach overnight at 37° C.
# [2] = Degradation of GIP and analogues by human plasma (HPLC); assay type: in vitro ADME
# Description: Degradation of GIP and Tyr^1-glucitol GIP by human plasma. […] […] The reactions were terminated by addition of 5 μl of TFA and the final volume adjusted to 1.0 ml using 0.1% v/v TFA/water. Samples were centrifuged (13,000 g, 5 minutes) and the supernatant applied to a C-18 Sep-Pak cartridge (Millipore-Waters) which was previously primed and washed with 0.1% (v/v) TFA/water. […] The volume was adjusted to 1.0 ml with 0.12% (v/v) TFA/water prior to HPLC purification.
# (§1) HPLC analysis of degraded GIP and Tyr^1-glucitol GIP. […] Using 0.1% (v/v) TFA in 70% acetonitrile/H20, the concentration of acetonitrile in the eluting solvent was raised from 0% to 31.5% over 15 min, to 38.5% over 30 minutes and from 38.5% to 70% over 5 minutes, using linear gradients. The absorbance was monitored at 206 nm and peak areas evaluated using a model 2221 LKB integrator. Samples recovered manually were concentrated using a Speed-Vac concentrator.
# (§2) Electrospray ionization-mass spectrometry (ESI-MS) was carried out as described in Example 2. Degradation of GIP and novel GIP analogues by DPP IV and human plasma was carried out as described in Example 2.
# DPP IV = molecular target: T1, DPP IV (Sus scrofa, UniProt P22411); experiment: Degradation of GIP and analogues by DPP IV (HPLC); assay type: in vitro ADME
# T1 construct: purchased Sigma (Poole, Dorset, UK)
# T1 sequence (P22411 whole entry): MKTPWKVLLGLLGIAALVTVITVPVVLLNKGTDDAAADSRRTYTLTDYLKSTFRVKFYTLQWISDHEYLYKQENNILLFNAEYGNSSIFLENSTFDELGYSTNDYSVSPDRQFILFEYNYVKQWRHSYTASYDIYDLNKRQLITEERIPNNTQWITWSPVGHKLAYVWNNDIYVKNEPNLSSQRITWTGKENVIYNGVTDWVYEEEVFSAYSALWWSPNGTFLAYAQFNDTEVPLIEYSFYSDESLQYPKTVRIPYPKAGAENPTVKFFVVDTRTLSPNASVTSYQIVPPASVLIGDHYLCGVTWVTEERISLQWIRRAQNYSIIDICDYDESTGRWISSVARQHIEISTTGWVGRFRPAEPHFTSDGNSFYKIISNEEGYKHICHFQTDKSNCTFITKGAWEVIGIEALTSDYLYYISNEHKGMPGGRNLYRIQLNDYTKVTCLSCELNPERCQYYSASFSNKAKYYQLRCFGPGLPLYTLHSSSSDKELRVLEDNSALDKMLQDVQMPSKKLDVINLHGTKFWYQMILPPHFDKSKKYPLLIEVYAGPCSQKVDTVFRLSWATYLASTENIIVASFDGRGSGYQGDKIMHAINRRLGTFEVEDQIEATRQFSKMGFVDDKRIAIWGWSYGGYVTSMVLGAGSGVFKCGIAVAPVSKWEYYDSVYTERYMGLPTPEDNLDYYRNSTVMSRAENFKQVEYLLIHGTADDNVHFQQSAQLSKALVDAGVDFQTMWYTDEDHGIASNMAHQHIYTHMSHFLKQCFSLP
# Description: Degradation of GIP and Tyr^1-glucitol GIP by DPP IV. HPLC-purified GIP or Tyr^1-glucitol GIP were incubated at 37° C. with DPP-IV (5 mU) for various time periods in a reaction mixture made up to 500 μl with 50 mmol/l triethanolamine-HCl, pH 7.8 (final peptide concentration 1 mmol/l). Enzymatic reactions were terminated after 0, 2, 4 and 12 hours by addition of 5 μl of 10% (v/v) TFA/water. Samples were made up to a final volume of 1.0 ml with 0.12% (v/v) TFA and stored at −20° C. prior to HPLC analysis.
# as §1, §2
# Wistar rats = experiment: In vivo plasma glucose and insulin after i.p. glucose with peptide in Wistar rats; set-up: species or system rat
# Description: In vivo biological activity of GIP and Tyr^1-glucitol GIP. Effects of GIP and Tyr^1-glucitol GIP on plasma glucose and insulin concentrations were examined using 10-12 week old male Wistar rats. The animals were housed individually in an air conditioned room and 22±2° C. with a 12 hour light/12 hour dark cycle. Drinking water and a standard rodent maintenance diet (Trouw Nutrition, Belfast, Northern Ireland) were supplied ad libitum. Food was withdrawn for an 18 hour period prior to intraperitoneal injection of glucose alone (18 mmol/kq body weight) or in combination with either GIP or Tyr^1-glucitol GIP (10 nmol/kg). Test solutions were administered in a final volume of 8 ml/kg body weight. Blood samples were collected at 0, 15, 30 and 60 minutes from the cut tip of the tail of conscious rats into chilled fluoride/heparin microcentrifuge tubes (Sarstedt, Numbrecht, Germany). Samples were centrifuged using a Beckman microcentrifuge for about 30 seconds at 13,000 g. Plasma samples were aliquoted and stored at −20° C. prior to glucose and insulin determinations. All animal studies were done in accordance with the Animals (Scientific Procedures) Act 1986.
# Analyses. Plasma glucose was assayed by an automated glucose oxidase procedure using a Beckman Glucose Analyzer II [33]. Plasma insulin was determined by dextran charcoal radioimmunoassay as described previously. Incremental areas under plasma glucose and insulin area under the curve (AUC) were calculated using a computer program (CAREA) employing the trapezoidal rule with baseline subtraction. Results are expressed as mean±SEM and values were compared using the Student's unpaired t-test.
# BRIN-BD11 cells [3] = experiment: Acute tests for insulin secretion from BRIN-BD11 cells; assay type: cell-based
# Description: Culture of insulin secreting cells. BRIN-BD11 cells were cultured in sterile tissue culture flasks (Corning, Glass Works, UK) using RPMI-1640 tissue culture medium containing 10% (v/v) foetal calf serum, 1% (v/v) antibiotics (100 U/ml penicillin, 0.1 mg/ml streptomycin) and 11.1 mM glucose. The cells were maintained at 37° C. in an atmosphere of 5% CO2 and 95% air using a LEEC incubator (Laboratory Technical Engineering, Nottingham, UK).
# Acute tests for insulin secretion. Before experimentation, the cells were harvested from the surface of the tissue culture flasks with the aid of trypsin/EDTA (Gibco), seeded into 24-multiwell plates (Nunc, Roskilde, Denmark) at a density of 1.5×10^5 cells per well, and allowed to attach overnight at 37° C. Acute tests for insulin release were preceded by 40 minutes pre-incubation at 37° C. in 1.0 ml Krebs Ringer bicarbonate buffer (115 mM NaCl, 4.7 mM KCl, 1.28 mM CaCl2, 1.2 mM KH2PO4, 1.2 mM MgSO4, 10 mM NaHCO3, 5 g/l bovine serum albumin, pH 7.4) supplemented with 1.1 mM glucose. Test incubations were performed (n=12) at two glucose concentrations (5.6 mM and 16.7 mM) with a range of concentrations (10^−13 to 10^−8 M) of GIP or GIP analogues. After 20 minutes incubation, the buffer was removed from each well and aliquots (200 μl) were used for measurement of insulin by radioimmunoassay.
# [4] = 10 nmol/kg i.p. with glucose 18 mmol/kg, rats
substance,measurement,setting,value
(Hyp^3)GIP: Glu^3-substituted form of GIP (hydroxyproline at position 3) (YA[Hyp]GTFISDYSIAMDKIHQQDFVNWLLAQKGKKNDWKHNITQ),inhibition of GIP-stimulated insulin secretion,BRIN-BD11 cells [1],inhibited in a dose-dependent fashion
(Lys^3)GIP: Glu^3-substituted form of GIP (lysine at position 3) (YAKGTFISDYSIAMDKIHQQDFVNWLLAQKGKKNDWKHNITQ),inhibition of GIP-stimulated insulin secretion,BRIN-BD11 cells [1],inhibited in a dose-dependent fashion
(Phe^3)GIP: Glu^3-substituted form of GIP (phenylalanine at position 3) (YAFGTFISDYSIAMDKIHQQDFVNWLLAQKGKKNDWKHNITQ),inhibition of GIP-stimulated insulin secretion,BRIN-BD11 cells [1],inhibited in a dose-dependent fashion
(Trp^3)GIP: Glu^3-substituted form of GIP (tryptophan at position 3) (YAWGTFISDYSIAMDKIHQQDFVNWLLAQKGKKNDWKHNITQ),inhibition of GIP-stimulated insulin secretion,BRIN-BD11 cells [1],inhibited in a dose-dependent fashion
(Tyr^3)GIP: Glu^3-substituted form of GIP (tyrosine at position 3) (YAYGTFISDYSIAMDKIHQQDFVNWLLAQKGKKNDWKHNITQ),inhibition of GIP-stimulated insulin secretion,BRIN-BD11 cells [1],inhibited in a dose-dependent fashion
"GIP(3-42): N-terminally truncated GIP, main DPP IV metabolite after removal of Tyr^1-Ala^2 (EGTFISDYSIAMDKIHQQDFVNWLLAQKGKKNDWKHNITQ; listed as Homo sapiens)",inhibition of GIP-stimulated insulin secretion,BRIN-BD11 cells [1],inhibited in a dose-dependent fashion
[X1]AEGTFISDYSIAMDKIHQQDFVNWLLAQKGKKNDWKHNITQ [Glycated GIP],% Intact peptide remaining after incubations with human plasma,[2]; 0 h,100%
same,effect of DPA on plasma degradation of the peptide,[2]; 24 hours in the presence of DPA,complete abolition of degradation
same,% Intact peptide remaining after incubations with human plasma,[2]; 24 hours in the presence of DPA (diprotin A),100%
same,degradation by human plasma,"[2]; Example 2, 4 hours incubation",did not result in the formation of any detectable degradation fragments
same,"remaining at 2 h, 20 µg/ml","[2]; human, plasma, pH 7.8, 2 h, read-out: % Intact peptide remaining after incubations with human plasma",100%
same,"remaining at 4 h, 20 µg/ml","[2]; human, plasma, pH 7.8, 4 h, read-out: % Intact peptide remaining after incubations with human plasma",100%
same,"remaining at 8 h, 20 µg/ml","[2]; human, plasma, pH 7.8, 8 h, read-out: % Intact peptide remaining after incubations with human plasma",100%
same,"remaining at 24 h, 20 µg/ml","[2]; human, plasma, pH 7.8, 24 h, read-out: % Intact peptide remaining after incubations with human plasma",100%
same,stability on incubation with DPP IV,"DPP IV; Example 2, 2-12 hours incubation",remained almost completely intact
same,resistance to in vitro degradation with DPP IV relative to native GIP,"DPP IV; Example 3, summary of Table 1",more resistant than native GIP
same,% Intact peptide remaining after time (h),"DPP IV; incubation with DPP IV, 0 h",100%
same,"remaining at 2 h, 1 mmol/l","DPP IV; isolated enzyme dpp iv, pH 7.8, incubation with DPP IV, 2 h, read-out: % Intact peptide remaining after time (h)",100%
same,"remaining at 4 h, 1 mmol/l","DPP IV; isolated enzyme dpp iv, pH 7.8, incubation with DPP IV, 4 h, read-out: % Intact peptide remaining after time (h)",100%
same,"remaining at 8 h, 1 mmol/l","DPP IV; isolated enzyme dpp iv, pH 7.8, incubation with DPP IV, 8 h, read-out: % Intact peptide remaining after time (h)",100%
same,"remaining at 24 h, 1 mmol/l","DPP IV; isolated enzyme dpp iv, pH 7.8, incubation with DPP IV, 24 h, read-out: % Intact peptide remaining after time (h)",100%
same,overall insulin response (AUC) compared with glucose alone,Wistar rats; 10 nmol/kg i.p. with glucose,significantly greater
same,plasma insulin response (AUC) compared with GIP,Wistar rats; 10 nmol/kg i.p. with glucose,significantly greater than after GIP
same,"increase of antihyperglycemic action relative to GIP, estimated from AUC",Wistar rats; [4],38%
same,"increase of insulin-releasing action relative to GIP, estimated from AUC",Wistar rats; [4],62%
same,plasma glucose AUC compared to GIP,"Wistar rats; 10 nmol/kg i.p. with glucose, vs GIP",significantly lower
same,plasma glucose concentrations and AUC compared with control group,"Wistar rats; 10 nmol/kg i.p. with glucose, vs glucose alone, 0-60 min",significantly lower
same,insulin secretion from BRIN-BD11 cells,"BRIN-BD11 cells [3]; 5.6 and 16.7 mM glucose, 10^-13 to 10^-8 M peptide",considerably greater insulinotropic response compared with native peptide
same,insulin-releasing potency relative to GIP,BRIN-BD11 cells [3]; glucose-responsive clonal B-cells,several orders of magnitude greater than GIP

# Source: patent publication US7875587B2, “Peptide analogues of GIP for treatment of diabetes, insulin resistance and obesity” (UUTECH Limited, priority 2004, dated 2011)
